# Experimental data published in patent publication US20260234164A1, “BIPHENYL COMPOUND AS IMMUNOMODULATOR, PREPARATION METHOD THEREFOR AND USE THEREOF” (SHENZHEN CHIPSCREEN BIOSCIENCES CO., LTD., priority 2021, published 2026).
# Molecular target: T1, PD-1/PD-L1 binding (Homo sapiens, UniProt Q9NZQ7)
# T1 construct: purchased Sino Biological Inc. 10084-H02H-100 (PD-L1-Fc); 10377-H08H-50 (His-PD-1)
# Assay: HTRF inhibition of PD-1/PD-L1 binding in vitro
# Settings: His-PD-1 100 nM, PD-L1-Fc 2 nM, read-out: IC50 inhibiting PD-1/PD-L1 binding in vitro
# Text: Homogeneous Time-Resolved Fluorescence (HTRF): This method used the recombinant human PD-L1 protein fused to express the hFc tag and the recombinant human PD-1 protein fused to express the His tag, both of which were interacting ligands and receptors. When the anti-hFc antibody containing Eu element chelation marker and the anti-His antibody labeled with XL665 fluorescein were bound with the above two corresponding labels, and excited by a laser with a wavelength of 320 nm, the ligand-receptor binding enabled the energy to be transferred from the Eu element to the XL665 fluorescein, which was excited to emit light at a wavelength of 665 nm. However, when an inhibitor of the interaction between PD-L1 and PD-1 was added, the binding of the ligand to the receptor was destroyed, so that the distance between Eu and XL665 was far away, the energy cannot be transferred, and XL665 would not be excited.
# Recombinant human PD-1 protein with His tag (His-PD-1 protein, Cat #: 10377-H08H-50), and recombinant human PD-L1-Fc fusion protein (PD-L1-Fc fusion protein, Cat #: 10084-H02H-100) were purchased from Sino Biological Inc., […] and anti-His-XL665 antibody were purchased from Cisbio Company, and other related reagents such as dilution buffer (Diluent buffer 5, Cat #: 62DL5DDC), detection buffer (PPI-Europium detection buffer, Cat #: 61DB9RDF) were purchased from Cisbio Company. Fluorescence detection instrument Tecan (Spark 10 M) was purchased from Switzerland Tecan Company.
# (1) Experimental preparation: The test compound was diluted with dilution buffer into different concentration gradients (the highest final concentration in 20 μL final reaction system was 10 μM), His-PD-1 protein was diluted to 800 nM (the final concentration in 20 μL final reaction system was 100 nM), and the PD-L1-Fc fusion protein was diluted to 16 nM (final concentration was 2 nM). The anti-His-XL665 antibody and anti-hFc-Eu^3+ antibody were respectively diluted 20 times and 100 times using the detection buffer according to the reagent requirements.
# (2) 5 μL of test compound, 2.5 μL of PD-L1-Fc fusion protein and 2.5 μL of His-PD-1 protein solution were mixed, and incubated at room temperature for 15 min. Then the system was added with 5 μL of anti-His-XL665 antibody and 5 μL of anti-hFc-Eu^3+ antibody, incubated for another 3 h, and then detected.
# (3) When detecting the reaction, a control group was also provided, including a 0% inhibition positive control without adding test compounds and a 100% inhibition negative control without adding PD-1 protein. All detections were performed with duplicates.
# (4) The fluorescence signal of each well was measured using a fluorescence detector Tecan (Spark 10M) at an excitation wavelength of 320 nm, and emission wavelengths of 620 nm and 665 nm, respectively. The intensity of the mutual binding of PD-1 and PD-L1 referred to the ratio of fluorescence signals Em665/Em620.
# (5) The binding inhibition rate of the test compound was calculated as follows: Inhibition rate (%)=[1−(Fluorescence signal ratio of detection well-fluorescence signal ratio of 100% inhibition negative control)]/(fluorescence signal ratio of 0% inhibition positive control-fluorescence signal ratio of 100% inhibition negative control)×100%. After calculating the inhibition rate on PD-1/PD-L1 binding of the test compounds with different concentration gradients, the 50% inhibitory concentration (IC50) was calculated.
# T1 sequence (Q9NZQ7 19-239 limits assumed): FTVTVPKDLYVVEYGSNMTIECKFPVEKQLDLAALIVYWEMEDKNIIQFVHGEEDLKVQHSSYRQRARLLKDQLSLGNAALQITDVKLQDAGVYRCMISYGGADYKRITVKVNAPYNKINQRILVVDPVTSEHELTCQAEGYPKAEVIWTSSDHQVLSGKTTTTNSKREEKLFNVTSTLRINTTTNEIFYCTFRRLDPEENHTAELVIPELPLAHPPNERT
row,SMILES,IC50 [nM]
1,"[2H]C([2H])([2H])n1c(C(=O)Nc2cccc(-c3cccc(NC(=O)c4nc5c(n4C([2H])([2H])[2H])CCN(CCC46CCC(C(=O)O)(CC4)C6)C5)c3Cl)c2F)nc2c1CCN(CCC13CCC(COC)(CC1)C3)C2 (single isomer, unassigned) [Compound I-8, 4-(2-(2-((2-chloro-2′-fluoro-3′-(5-(2-(4-(methoxymethyl)bicyclo[2.2.1]heptane-1-yl)ethyl)-1-(methyl-d3)-4,5,6,7-tetrahydro-1H-imidazo[4,5-c]pyridine-2-carboxamido)-[1,1′-biphenyl]-3-yl)carbamoyl)-1-(methyl-d3)-1,4,6,7-tetrahydro-5H-imidazo[4,5-c]pyridin-5-yl)ethyl)bicyclo[2.2.1]heptane-1-carboxylic acid]",1.63
2,"[2H]C([2H])([2H])OCC12CCC(CCN3CCc4c(nc(C(=O)Nc5cccc(-c6cccc(NC(=O)c7nc8c(n7C)CCN(CCC79CCC(C(=O)O)(CC7)C9)C8)c6C)c5Cl)n4C)C3)(CC1)C2 [Compound I-3, 4-(2-(2-((2′-chloro-3′-(5-(2-(4-((methoxy-d3)methyl)bicyclo[2.2.1]heptane-1-yl)ethyl)-1-methyl-4,5,6,7-tetrahydro-1H-imidazo[4,5-c]pyridine-2-carboxamido)-2-methyl-[1,1′-biphenyl]-3-yl)carbamoyl)-1-methyl-1,4,6,7-tetrahydro-5H-imidazo[4,5-c]pyridin-5-yl)ethyl)bicyclo[2.2.1]heptane-1-carboxylic acid]",2.9

# Now those with a lower IC50, led by results:
row,IC50 [nM],SMILES
1,1.52,"[2H]C([2H])([2H])OCC12CCC(CCN3CCc4c(nc(C(=O)Nc5cccc(-c6cccc(NC(=O)c7nc8c(n7C)CCN(CCC79CCC(C(=O)O)(CC7)C9)C8)c6Cl)c5F)n4C)C3)(CC1)C2 (single isomer, unassigned) [Compound I-2, 4-(2-(2-((2-chloro-2′-fluoro-3′-(5-(2-(4-((methoxy-d3)methyl)bicyclo[2.2.1]heptane-1-y 1)ethyl)-1-methyl-4,5,6,7-tetrahydro-1H-imidazo[4,5-c]pyridine-2-carboxamido)-[1,1′-biphenyl]-3-yl)carbamoyl)-1-methyl-1,4,6,7-tetrahydro-5H-imidazo[4,5-c]pyridin-5-yl)ethyl)bicyclo[2.2.1]heptane-1-carboxylic acid]"
2,1.38,"[2H]C([2H])([2H])OCC12CCC(CCN3CCc4c(nc(C(=O)Nc5cccc(-c6cccc(NC(=O)c7nc8c(n7C([2H])([2H])[2H])CCN(CCC79CCC(C(=O)O)(CC7)C9)C8)c6Cl)c5F)n4C([2H])([2H])[2H])C3)(CC1)C2 (single isomer, unassigned) [Compound I-7, 4-(2-(2-((2-chloro-2′-fluoro-3′-(5-(2-(4-((methoxy-d3)methyl)bicyclo[2.2.1]heptane-1-yl)ethyl)-1-(methyl-d3)-4,5,6,7-tetrahydro-1H-imidazo[4,5-c]pyridine-2-carboxamido)-[1,1′-biphenyl]-3-yl)carbamoyl)-1-(methyl-d3)-1,4,6,7-tetrahydro-5H-imidazo[4,5-c]pyridin-5-yl)ethyl)bicyclo[2.2.1]heptane-1-carboxylic acid]"
3,0.51,"[2H]c1c([2H])c(NC(=O)c2nc3c(n2C)CCN(CCC24CCC(COC([2H])([2H])[2H])(CC2)C4)C3)c(F)c(-c2c([2H])c([2H])c([2H])c(NC(=O)c3nc4c(n3C)CCN(CCC35CCC(C(=O)O)(CC3)C5)C4)c2Cl)c1[2H] (single isomer, unassigned) [Compound I-14, 4-(2-(2-((2-chloro-2′-fluoro-3′-(5-(2-(4-((methoxy-d3)methyl)bicyclo[2.2.1]heptane-1-y 1)ethyl)-1-methyl-4,5,6,7-tetrahydro-1H-imidazo[4,5-c]pyridine-2-carboxamido)-[1,1′-biphenyl]-3-yl-4,4′,5,5′,6,6′-d6)carbamoyl)-1-methyl-1,4,6,7-tetrahydro-5H-imidazo[4,5-c]pyridin-5-yl)ethyl)bicyclo[2.2.1]heptane-1-carboxylic acid]"
